How the values were obtained:
CCK1 = target: T1, CCK1 (Homo sapiens, UniProt P32238); experiment: SafetyOne44 panel: CCK1; format: cell-based; conditions: 10 μmol/L
T1 construct: purchased ICE Bioscience ICESTP™ SafetyOne44 Panel
T1 sequence (P32238 1-428): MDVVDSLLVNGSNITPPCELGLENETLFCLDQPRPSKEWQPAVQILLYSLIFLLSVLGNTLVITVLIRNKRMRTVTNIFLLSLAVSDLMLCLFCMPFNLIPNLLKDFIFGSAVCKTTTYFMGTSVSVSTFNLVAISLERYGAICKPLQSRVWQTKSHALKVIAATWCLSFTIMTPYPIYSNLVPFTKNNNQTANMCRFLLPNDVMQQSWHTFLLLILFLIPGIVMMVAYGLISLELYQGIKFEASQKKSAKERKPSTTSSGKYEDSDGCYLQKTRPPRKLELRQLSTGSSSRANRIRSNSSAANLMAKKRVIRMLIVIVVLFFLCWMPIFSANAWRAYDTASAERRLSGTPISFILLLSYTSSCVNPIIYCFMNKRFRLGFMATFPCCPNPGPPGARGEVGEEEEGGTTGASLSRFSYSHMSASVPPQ

ACHE = target: T2, ACHE (Homo sapiens, UniProt P22303); experiment: biochemical; conditions: 10 μmol/L, read-out: Antagonist JDIC-127 @10 μmol/L
T2 construct: purchased ICE Bioscience ICESTP™ SafetyOne44 Panel

TRPC5 Q573A = target: T3, TRPC5 Q573A (Homo sapiens, UniProt Q9UL62, Q573A); experiment: Inhibition of TRPC5 mutant Q573A; format: cell-based; conditions: TRPC5 Q573A vs wild type
T3 construct: full-length wild-type or mutant TRPC5 was cloned into a pcDNA3.1 vector; expressed in transfected cells; host or cells: HEK293T

5-HT3A = target: T4, 5-HT3A (Homo sapiens, UniProt P46098); format: cell-based
T4 construct: ICE Bioscience ICESTP SafetyOne44 Panel
T4 sequence (P46098 24-478, species assumed): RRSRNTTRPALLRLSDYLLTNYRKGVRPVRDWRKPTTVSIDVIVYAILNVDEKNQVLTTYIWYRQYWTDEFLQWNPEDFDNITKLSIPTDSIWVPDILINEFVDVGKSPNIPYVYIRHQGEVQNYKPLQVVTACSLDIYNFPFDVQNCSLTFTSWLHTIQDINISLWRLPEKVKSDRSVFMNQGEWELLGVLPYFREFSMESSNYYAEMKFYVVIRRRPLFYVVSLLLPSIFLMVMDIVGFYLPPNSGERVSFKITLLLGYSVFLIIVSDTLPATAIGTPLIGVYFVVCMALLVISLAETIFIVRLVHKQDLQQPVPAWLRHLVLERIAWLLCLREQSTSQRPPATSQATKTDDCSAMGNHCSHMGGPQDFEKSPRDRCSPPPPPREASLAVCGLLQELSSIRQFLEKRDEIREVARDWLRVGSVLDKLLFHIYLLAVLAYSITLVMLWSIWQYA

Nav1.5 = target: T5, Nav1.5 (Homo sapiens, UniProt Q14524); experiment: SafetyOne44 panel ion channels: Nav1.5; format: cell-based; conditions: Nav1.5, 5 μmol/L
T5 construct: ICE Bioscience ICESTP SafetyOne44 Panel

5-HT1A = target: T6, 5-HT1A (Homo sapiens, UniProt P08908); experiment: cell-based; format: cell-based
T6 construct: purchased ICE Bioscience ICESTP SafetyOne44 Panel
T6 sequence (P08908 whole entry): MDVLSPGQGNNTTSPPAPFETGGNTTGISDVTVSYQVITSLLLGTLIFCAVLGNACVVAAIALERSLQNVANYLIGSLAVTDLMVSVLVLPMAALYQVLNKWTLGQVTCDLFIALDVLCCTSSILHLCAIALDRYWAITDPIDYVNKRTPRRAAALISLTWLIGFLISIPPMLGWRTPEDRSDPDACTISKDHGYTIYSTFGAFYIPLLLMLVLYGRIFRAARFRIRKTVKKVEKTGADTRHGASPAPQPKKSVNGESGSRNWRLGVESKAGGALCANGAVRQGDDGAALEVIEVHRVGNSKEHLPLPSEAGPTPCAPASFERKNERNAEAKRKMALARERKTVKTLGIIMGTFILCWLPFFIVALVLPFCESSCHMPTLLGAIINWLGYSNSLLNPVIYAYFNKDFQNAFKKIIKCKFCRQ

δOR = target: T7, δOR (Homo sapiens, UniProt P41143); experiment: cell-based; format: cell-based
T7 construct: purchased ICE Bioscience ICESTP™ SafetyOne44 Panel
T7 sequence (P41143 whole entry): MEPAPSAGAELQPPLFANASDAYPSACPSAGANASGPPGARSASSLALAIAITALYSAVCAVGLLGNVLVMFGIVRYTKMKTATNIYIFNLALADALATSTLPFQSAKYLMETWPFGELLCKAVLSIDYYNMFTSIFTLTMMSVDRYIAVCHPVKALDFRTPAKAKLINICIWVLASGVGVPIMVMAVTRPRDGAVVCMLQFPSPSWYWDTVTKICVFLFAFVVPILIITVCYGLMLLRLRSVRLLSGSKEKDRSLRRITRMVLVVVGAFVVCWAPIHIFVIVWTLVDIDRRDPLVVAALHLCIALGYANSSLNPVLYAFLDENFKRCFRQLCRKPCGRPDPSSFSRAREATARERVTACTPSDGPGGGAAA

TRPV1 = TRPV1 (Homo sapiens, UniProt Q8NER1); experiment: Patch-clamp selectivity, TRPV1; format: cell-based; conditions: 10 μmol/L
H1 = H1 (Homo sapiens, UniProt P35367); conditions: H1, agonist mode
M3 = target: T8, M3 (Homo sapiens, UniProt P20309); experiment: cell-based; format: cell-based
T8 construct: purchased ICE Bioscience ICESTP SafetyOne44 Panel
T8 sequence (P20309 whole entry): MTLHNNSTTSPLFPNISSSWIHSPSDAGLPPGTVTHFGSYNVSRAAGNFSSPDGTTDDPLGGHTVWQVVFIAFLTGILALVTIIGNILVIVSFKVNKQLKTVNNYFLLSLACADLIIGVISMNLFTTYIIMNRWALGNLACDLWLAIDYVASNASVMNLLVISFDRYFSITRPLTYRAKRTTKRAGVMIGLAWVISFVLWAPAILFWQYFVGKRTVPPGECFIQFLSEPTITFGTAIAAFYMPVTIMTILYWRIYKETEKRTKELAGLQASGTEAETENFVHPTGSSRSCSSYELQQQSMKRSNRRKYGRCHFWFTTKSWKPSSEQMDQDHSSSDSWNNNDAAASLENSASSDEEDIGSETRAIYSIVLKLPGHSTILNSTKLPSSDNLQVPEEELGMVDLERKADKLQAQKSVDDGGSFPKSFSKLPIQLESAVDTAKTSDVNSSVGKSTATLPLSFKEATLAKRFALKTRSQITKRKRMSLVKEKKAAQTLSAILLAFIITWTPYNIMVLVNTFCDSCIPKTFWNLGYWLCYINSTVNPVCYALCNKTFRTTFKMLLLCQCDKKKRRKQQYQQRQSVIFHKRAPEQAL

PDE3 A = target: T9, PDE3 A (Homo sapiens, UniProt Q14432); experiment: SafetyOne44 panel: PDE3A; format: biochemical; conditions: 10 μmol/L, read-out: Antagonist JDIC-127 @10 μmol/L
T9 construct: purchased ICE Bioscience ICESTP™ SafetyOne44 Panel
T9 sequence (Q14432 whole entry): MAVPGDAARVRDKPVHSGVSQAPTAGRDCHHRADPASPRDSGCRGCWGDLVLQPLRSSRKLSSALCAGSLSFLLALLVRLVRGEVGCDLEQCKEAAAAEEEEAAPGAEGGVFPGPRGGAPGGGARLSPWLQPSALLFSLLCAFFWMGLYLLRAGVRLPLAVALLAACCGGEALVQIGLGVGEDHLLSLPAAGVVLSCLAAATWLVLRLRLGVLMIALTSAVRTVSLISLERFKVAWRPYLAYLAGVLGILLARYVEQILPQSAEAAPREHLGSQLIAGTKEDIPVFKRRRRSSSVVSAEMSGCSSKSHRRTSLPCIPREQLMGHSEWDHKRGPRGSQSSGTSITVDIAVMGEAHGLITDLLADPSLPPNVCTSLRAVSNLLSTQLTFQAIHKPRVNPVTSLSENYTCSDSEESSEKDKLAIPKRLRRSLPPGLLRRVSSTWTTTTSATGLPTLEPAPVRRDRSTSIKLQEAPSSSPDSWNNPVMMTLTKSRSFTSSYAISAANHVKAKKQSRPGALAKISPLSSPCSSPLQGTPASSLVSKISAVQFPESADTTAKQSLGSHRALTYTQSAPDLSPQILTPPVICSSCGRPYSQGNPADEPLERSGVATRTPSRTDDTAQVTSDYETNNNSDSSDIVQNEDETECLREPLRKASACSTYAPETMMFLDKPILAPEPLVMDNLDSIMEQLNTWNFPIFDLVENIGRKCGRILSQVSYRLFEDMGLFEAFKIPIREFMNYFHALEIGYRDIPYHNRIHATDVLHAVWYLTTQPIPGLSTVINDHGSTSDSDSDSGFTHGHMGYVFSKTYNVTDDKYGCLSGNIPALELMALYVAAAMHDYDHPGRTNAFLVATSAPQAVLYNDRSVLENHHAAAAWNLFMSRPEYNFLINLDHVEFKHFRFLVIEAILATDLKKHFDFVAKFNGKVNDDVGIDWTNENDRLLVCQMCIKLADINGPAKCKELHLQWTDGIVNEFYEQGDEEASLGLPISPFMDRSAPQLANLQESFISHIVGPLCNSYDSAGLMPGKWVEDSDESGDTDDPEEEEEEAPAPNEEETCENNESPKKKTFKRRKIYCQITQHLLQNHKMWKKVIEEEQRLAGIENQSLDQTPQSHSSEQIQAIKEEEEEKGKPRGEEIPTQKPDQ

5-HT1B = target: T10, 5-HT1B (Homo sapiens, UniProt P28222); experiment: cell-based; conditions: 10 μmol/L
T10 construct: purchased ICE Bioscience ICESTP SafetyOne44 Panel
T10 sequence (P28222 whole entry): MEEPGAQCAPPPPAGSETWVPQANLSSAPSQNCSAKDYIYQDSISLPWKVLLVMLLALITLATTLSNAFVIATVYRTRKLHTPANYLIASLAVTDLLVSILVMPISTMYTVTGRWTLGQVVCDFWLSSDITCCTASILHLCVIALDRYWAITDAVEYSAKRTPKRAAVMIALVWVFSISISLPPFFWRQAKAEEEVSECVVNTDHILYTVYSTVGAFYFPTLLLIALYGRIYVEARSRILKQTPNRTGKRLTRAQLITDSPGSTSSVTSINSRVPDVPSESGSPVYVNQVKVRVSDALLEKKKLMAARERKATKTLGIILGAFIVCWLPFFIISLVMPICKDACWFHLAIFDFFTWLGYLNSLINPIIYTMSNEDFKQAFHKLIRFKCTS

CB2 = target: T11, CB2 (Homo sapiens, UniProt P34972); experiment: cell-based; format: cell-based
T11 construct: purchased ICE Bioscience ICESTP™ SafetyOne44 Panel
T11 sequence (P34972 whole entry): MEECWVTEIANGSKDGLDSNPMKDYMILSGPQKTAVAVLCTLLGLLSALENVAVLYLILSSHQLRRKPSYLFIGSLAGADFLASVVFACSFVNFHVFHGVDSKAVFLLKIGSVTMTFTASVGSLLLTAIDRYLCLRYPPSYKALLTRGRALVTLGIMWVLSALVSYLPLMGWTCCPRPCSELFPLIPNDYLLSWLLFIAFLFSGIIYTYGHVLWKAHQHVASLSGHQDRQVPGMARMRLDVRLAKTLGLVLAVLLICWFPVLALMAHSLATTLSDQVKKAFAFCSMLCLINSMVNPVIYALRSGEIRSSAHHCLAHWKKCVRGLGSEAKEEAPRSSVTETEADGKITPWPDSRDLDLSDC

TRPC1/4 = target: T12, TRPC1/4 (Homo sapiens, UniProt P48995+Q9UBN4); experiment: Whole-cell patch-clamp, TRPC1/4 heteromer, 100 nmol/L EA; format: cell-based; conditions: read-out: IC50, TRPC1/4
T12 construct: expressed in transfected cells; host or cells: HEK293T
Description: Given that TRPC4 and TRPC5 are highly similar and often form heteromeric with TRPC1, we evaluated JDIC-127's activity on TRPC4, TRPC1/4, and TRPC1/5 using whole-cell patch-clamp recordings under agonist stimulation with 100 nmol/L EA in HEK293T cells. […].
For electrophysiological activity testing of compounds against TRPC4 and TRPC5, stably expressed TRPC5 or TRPC4 cells were used for whole-cell patch-clamp recordings, employing a HEKA EPC10 amplifier and […] software (https://www.heka.com/downloads/downloads_main.html#down_patchmaster). Prior to recording, cells were induced with 1 μg/mL tetracycline for 24 h. For TRPC1/4 or TRPC1/5 heteromers, plasmids TRPC1 and TRPC5 or TRPC1 and TRPC4 were co-transfected into HEK293T cells. After 48 to 72 h of transfection, testing was performed. A 1-s ramp protocol from −100 to +100 mV at 0.2 Hz was applied, as previously described. The extracellular solution consisted of 140 mmol/L NaCl, 1 mmol/L MgCl2, 2 mmol/L CaCl2, 10 mmol/L Hepes, 5 mmol/L KCl, and 10 mmol/L D-glucose, with pH adjusted to 7.4 using NaOH. […] The half-maximal inhibitory concentration (IC50) of drugs was determined by recording currents at a +100 mV pulse and analyzing current amplitudes at varying drug concentrations, with IC50 values calculated using the Hill equation. […]

V1a = V1a (Homo sapiens, UniProt P37288); conditions: agonist mode
LCK = target: T13, LCK (Homo sapiens, UniProt P06239); experiment: biochemical; conditions: 10 μmol/L, read-out: Antagonist JDIC-127 @10 μmol/L
T13 construct: purchased ICE Bioscience ICESTP™ SafetyOne44 Panel
T13 sequence (P06239 whole entry): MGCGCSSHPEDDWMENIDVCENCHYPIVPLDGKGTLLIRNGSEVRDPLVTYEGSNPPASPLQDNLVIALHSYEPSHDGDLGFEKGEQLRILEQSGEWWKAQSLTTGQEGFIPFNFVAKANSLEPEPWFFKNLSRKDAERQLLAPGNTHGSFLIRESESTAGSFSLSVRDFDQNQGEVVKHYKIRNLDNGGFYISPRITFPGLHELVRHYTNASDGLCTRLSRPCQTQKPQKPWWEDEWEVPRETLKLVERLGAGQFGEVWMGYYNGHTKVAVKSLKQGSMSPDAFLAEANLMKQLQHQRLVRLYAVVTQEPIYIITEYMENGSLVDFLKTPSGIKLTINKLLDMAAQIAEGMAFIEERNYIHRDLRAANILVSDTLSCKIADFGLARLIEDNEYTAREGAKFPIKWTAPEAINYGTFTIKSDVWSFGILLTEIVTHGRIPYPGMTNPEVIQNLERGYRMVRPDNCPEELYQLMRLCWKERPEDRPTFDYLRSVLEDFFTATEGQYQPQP

D1 = target: T14, D1 (Homo sapiens, UniProt P21728); experiment: cell-based; format: cell-based
T14 construct: purchased ICE Bioscience ICESTP™ SafetyOne44 Panel
T14 sequence (P21728 whole entry): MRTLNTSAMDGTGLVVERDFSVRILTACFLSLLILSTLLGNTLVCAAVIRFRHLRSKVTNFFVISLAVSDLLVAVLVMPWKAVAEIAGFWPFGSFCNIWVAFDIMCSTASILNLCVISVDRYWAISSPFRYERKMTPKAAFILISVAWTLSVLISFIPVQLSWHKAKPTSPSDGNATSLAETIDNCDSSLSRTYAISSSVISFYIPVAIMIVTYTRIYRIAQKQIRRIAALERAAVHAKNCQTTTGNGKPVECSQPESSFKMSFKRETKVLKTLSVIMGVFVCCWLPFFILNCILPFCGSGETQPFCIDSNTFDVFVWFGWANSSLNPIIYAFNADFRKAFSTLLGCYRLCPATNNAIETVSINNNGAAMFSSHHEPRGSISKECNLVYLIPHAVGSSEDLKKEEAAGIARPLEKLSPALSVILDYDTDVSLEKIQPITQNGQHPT

μOR = target: T15, μOR (Homo sapiens, UniProt P35372); experiment: cell-based; conditions: antagonist mode, 10 μmol/L, read-out: Antagonist JDIC-127 @10 μmol/L
T15 construct: purchased ICE Bioscience ICESTP™ SafetyOne44 Panel

COX1 = COX1 (Homo sapiens, UniProt P23219)
[1] = antagonist mode, 10 μmol/L, read-out: Antagonist JDIC-127 @10 μmol/L

In the case of O=c1c2c3nc(n2Cc2ccc(Cl)cc2)Oc2ccc(F)c(c2)OCCCCCCn3c(=O)n1CCCO [JDIC-127], the “Agonist JDIC-127 @10 μmol/L” value (CCK1; CCK1, agonist mode) is reported as “–3.36%”, the inhibition at 10 µM (CCK1; CCK1, antagonist mode, read-out: Antagonist JDIC-127 @10 μmol/L) is reported as 6.16% and the inhibition at 10 µM (ACHE) is reported as 0.88%. For the same molecule, the “effect of mutation on inhibitory potency of JDIC-127” value (TRPC5 Q573A) was “significantly diminished”, the “Agonist JDIC-127 @ 5 μmol/L” value (5-HT3A; agonist mode) was 0.39% and the “Antagonist JDIC-127 @5 μmol/L” value (5-HT3A; antagonist mode) was 17.73%. For the same molecule, the “Antagonist JDIC-127 @5 μmol/L” value (Nav1.5) was 2.98%, the “Agonist JDIC-127 @10 μmol/L” value (5-HT1A; agonist mode) was “–1.59%” and the inhibition at 10 µM (5-HT1A; [1]) was -6.7%. The “Agonist JDIC-127 @10 μmol/L” value (δOR; agonist mode) was 7.81%, the inhibition at 10 µM (δOR; [1]) was -21.6% and the inhibition at 10 µM (TRPV1) was less than 33%. For the same molecule, the “Agonist JDIC-127 @10 μmol/L” value (H1) was 3.21%, the “Agonist JDIC-127 @10 μmol/L” value (M3; M3, agonist mode) was 0.99% and the inhibition at 10 µM (M3; M3, antagonist mode, 10 μmol/L, read-out: Antagonist JDIC-127 @10 μmol/L) was -1.46%. For the same molecule, the inhibition at 10 µM (PDE3 A) was 2.27%, the “Agonist JDIC-127 @10 μmol/L” value (5-HT1B; agonist mode) was 10.95% and the inhibition at 10 µM (5-HT1B; antagonist mode, read-out: Antagonist JDIC-127 @10 μmol/L) was -14.7%. For the same molecule, the “Agonist JDIC-127 @10 μmol/L” value (CB2; CB2, agonist mode) was 26.01%, the inhibition at 10 µM (CB2; CB2, antagonist mode, 10 μmol/L, read-out: Antagonist JDIC-127 @10 μmol/L) was -0.84% and the IC50 (TRPC1/4) was 1.86 nM. The “Agonist JDIC-127 @10 μmol/L” value (V1a) was “–7.01%”, the inhibition at 10 µM (LCK) was 29.4% and the “Agonist JDIC-127 @10 μmol/L” value (D1; D1, agonist mode) was “–1.54%”. The inhibition at 10 µM (D1; D1, antagonist mode, 10 μmol/L, read-out: Antagonist JDIC-127 @10 μmol/L) was 8.89%, the inhibition at 10 µM (μOR) was -16.9% and the “Antagonist JDIC-127 @10 μmol/L” value (COX1) was “–5.92%”.

Source: paper PMC12827894, “Structure-guided design of picomolar-level macrocyclic TRPC5 channel inhibitors with antidepressant activity” (Acta Pharmaceutica Sinica. B, 2025)
